Reference: ChEMBL document CHEMBL1201862, “PubChem BioAssay data set” (2004)
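1) Cells in 96-well plates. 2) Compound, 48 h, 5 concentrations. 3) Linear interpolation between surrounding doses. 4) Unreached endpoint = highest concentration. GI50 = concentration required for 50% inhibition of growth.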 Active and inactive are the calls of the source. No stated cut-off is given here; in the data, active = GI50 up to about 1.1 µM and inactive = higher.

How the values were obtained:
Test in all cases: NCI tumour cell line growth inhibition, 48 h
HT-29 = test system: HT-29
OVCAR-5 = test system: OVCAR-5
DU-145 = test system: DU-145
SW-620 = test system: SW-620
HCT-15 = test system: HCT-15
SNB-75 = test system: SNB-75
786-0 = test system: 786-0
UO-31 = test system: UO-31
ACHN = test system: ACHN
SF-295 = test system: SF-295
CAKI-1 = test system: CAKI-1
PC-3 = test system: PC-3
NCI/ADR-RES = test system: NCI/ADR-RES
A498 = test system: A498
OVCAR-3 = test system: OVCAR-3
SK-MEL-5 = test system: SK-MEL-5
MDA-MB-435 = test system: MDA-MB-435
MCF7 = test system: MCF7
T47D = test system: T47D

| Structure (SMILES) | GI50 (HT-29) | GI50 (OVCAR-5) | GI50 (DU-145) | GI50 (SW-620) | GI50 (HCT-15) | GI50 (SNB-75) | GI50 (786-0) | GI50 (UO-31) | GI50 (ACHN) | GI50 (SF-295) | GI50 (CAKI-1) | GI50 (PC-3) | GI50 (NCI/ADR-RES) | GI50 (A498) | GI50 (OVCAR-3) | GI50 (SK-MEL-5) | GI50 (MDA-MB-435) | GI50 (MCF7) | GI50 (T47D) |
| --- | --- | --- | --- | --- | --- | --- | --- | --- | --- | --- | --- | --- | --- | --- | --- | --- | --- | --- | --- |
| Cn1nc(S(N)(=O)=O)s/c1=N/S(=O)(=O)c1ccc(N)cc1 | > 100 µM (inactive) | > 100 µM (inactive) | > 100 µM (inactive) | > 100 µM (inactive) | > 100 µM | > 100 µM (inactive) | > 100 µM (inactive) | > 100 µM (inactive) | > 100 µM (inactive) | > 100 µM (inactive) | > 100 µM (inactive) | > 100 µM (inactive) | > 100 µM (inactive) | > 100 µM (inactive) | > 100 µM (inactive) |  |  |  |  |
| CC1=C(C(=O)Nc2ccc([N+](=O)[O-])cc2)C(c2ccc(N(C)C)cc2)C(C(=O)Nc2ccc([N+](=O)[O-])cc2)=C(C)N1 | 23.4 µM (inactive) | 23.2 µM (inactive) |  | 23.9 µM (inactive) |  | 13.7 µM (inactive) | 23.3 µM (inactive) | 21.5 µM (inactive) | 0.0475 µM (active) | 27.5 µM (inactive) | 31.8 µM (inactive) |  |  | 20.7 µM (inactive) | 16 µM (inactive) | 15 µM (inactive) |  |  |  |
| Cc1ccc(S(=O)(=O)N2CCCSCCSCCCN(S(=O)(=O)c3ccc(C)cc3)CC2)cc1 | > 100 µM (inactive) | > 100 µM (inactive) | > 100 µM (inactive) | > 100 µM (inactive) | > 100 µM | > 100 µM (inactive) | > 100 µM (inactive) | > 100 µM (inactive) | > 100 µM (inactive) | > 100 µM (inactive) |  |  | > 100 µM (inactive) | > 100 µM (inactive) | > 100 µM (inactive) | > 100 µM (inactive) | > 100 µM (inactive) | > 100 µM (inactive) | 57.8 µM (inactive) |
| O=C1CCC2SC1CCC2=O | > 100 µM (inactive) | > 100 µM (inactive) | > 100 µM (inactive) | > 100 µM (inactive) | > 100 µM | > 100 µM (inactive) | > 100 µM (inactive) | > 100 µM (inactive) | > 100 µM (inactive) | > 100 µM (inactive) | > 100 µM (inactive) | > 100 µM (inactive) | > 100 µM (inactive) | > 100 µM (inactive) | > 100 µM (inactive) | > 100 µM (inactive) | > 100 µM (inactive) | > 100 µM (inactive) |  |
| CC1=C(C(=O)Nc2cccc(C(F)(F)F)c2)C(c2ccccc2F)C(C(=O)Nc2cccc(C(F)(F)F)c2)=C(C)N1 | 3.66 µM (inactive) | 10.5 µM (inactive) |  | 7.08 µM (inactive) |  | 9.57 µM (inactive) | 6.49 µM (inactive) | 4.83 µM (inactive) | 4.2 µM (inactive) | 6.52 µM (inactive) | 8.57 µM (inactive) |  |  | 9.16 µM (inactive) | 4.66 µM (inactive) | 5.43 µM (inactive) |  |  |  |
| CCN1C(=O)C(=C/C=C/C=C2/N(C)c3ccccc3C2(C)C)C(=O)N(CC)C1=S | 55.6 µM (inactive) | > 100 µM (inactive) | 64.7 µM (inactive) | > 100 µM (inactive) | > 100 µM | > 100 µM (inactive) | 42.2 µM (inactive) | > 100 µM (inactive) | 53.6 µM (inactive) | 61.5 µM (inactive) | > 100 µM (inactive) |  | > 100 µM (inactive) | > 100 µM (inactive) | 36.4 µM (inactive) | > 10 µM (inactive) | > 100 µM (inactive) | > 100 µM (inactive) | 82.4 µM (inactive) |
| CC1=NN(C(=O)Cc2ccccc2)C(=O)/C1=C\c1ccc(O)cc1 | > 100 µM (inactive) | > 100 µM (inactive) |  | > 100 µM (inactive) | > 100 µM |  | > 100 µM (inactive) | > 100 µM (inactive) | > 100 µM (inactive) | > 100 µM (inactive) | > 100 µM (inactive) |  |  | > 100 µM (inactive) | > 100 µM (inactive) | > 100 µM (inactive) |  |  |  |
